Experimental data from US9695155B2, “Herbicidal substituted pyrimidinyloxy benzene compounds” (E. I. DU PONT DE NEMOURS AND COMPANY, priority 2013, dated 2017).

What was measured:
pigweed [1] = experiment: Test A postemergence; assay type: in vivo, Amaranthus retroflexus
Procedure, shortened: (§1)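 Pre- and postemergence greenhouse screen. Soil: loam + sand. Spray carrier: solvent mixture, non-phytotoxic, with surfactant. Post timing at 1–2 leaves, height 2–10 cm. Readout: visual injury on a 0–100 scale roughly 10 days after application, untreated plants as reference.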

large (Lg) crabgrass [2] = experiment: Test A preemergence; assay type: in vivo, Digitaria sanguinalis; conditions: for Crabgrass, Large plant response rating: 500 g ai/ha
Procedure, shortened: as §1

giant foxtail [3] = experiment: Test A postemergence; assay type: in vivo, Setaria faberii
Procedure, shortened: as §1

johnsongrass = experiment: Test C preemergence; assay type: in vivo, Sorghum halepense
Source text: (§2) Seeds of plant species selected from blackgrass (Alopecurus myosuroides), Italian ryegrass (Lolium multiflorum), wheat, winter (winter wheat, Triticum aestivum), galium (catchweed bedstraw, Galium aparine), corn (Zea mays), large (Lg) crabgrass (Digitaria sanguinalis), giant foxtail (Setaria faberii), johnsongrass (Sorghum halepense), lambsquarters (Chenopodium album), morningglory (Ipomoea coccinea), yellow nutsedge (Cyperus esculentus), pigweed (Amaranthus retroflexus), ragweed (common ragweed, Ambrosia elatior), soybean (Glycine max), barnyardgrass (Echinochloa crus-galli), oilseed rape (Brassica napus), waterhemp (common waterhemp, Amaranthus rudis), kochia (Kochia scoparia), wild oat (Avena fatua), surinam grass (Brachiaria decumbens), foxtail, green (green foxtail, Setaria viridis), goosegrass (Eleusine indica), bromegrass, downy (downy bromegrass, Bromus tectorum), nightshade (eastern black nightshade, Solanum ptycanthum), cocklebur (common cocklebur, Xanthium strumarium), cupgrass, woolly (woolly cupgrass, Eriochloa villosa), bermudagrass (Cynodon dactylon), sunflower, (common oilseed sunflower, Helianthus annuus), Russian thistle (Salsola kali), and velvetleaf (Abutilon theophrasti) were planted into a blend of loam soil and sand and treated preemergence with test chemicals formulated in a non-phytotoxic solvent mixture which included a surfactant.
(§3) At the same time, plants selected from these crop and weed species and also barley, winter (winter barley, Hordeum vulgare), windgrass (Apera spica-venti), chickweed (common chickweed, Stellaria media), deadnettle (henbit deadnettle, Lamium amplexicaule), and canarygrass (littleseed canarygrass, Phalaris minor) were planted in pots containing Redi-Earth® planting medium (Scotts Company, 14111 Scottslawn Road, Marysville, Ohio 43041) comprising spaghnum peat moss, vermiculite, wetting agent and starter nutrients and treated with postemergence applications of test chemicals formulated in the same manner. Plants ranged in height from 2 to 18 cm (1- to 4-leaf stage) for postemergence treatments. Treated plants and controls were maintained in a greenhouse for 13 to 15 days, after which time all species were compared to controls and visually evaluated. Plant response ratings, summarized in Table C, are based on a scale of 0 to 100 where 0 is no effect and 100 is complete control. A dash (-) response means no test result.

giant foxtail [4] = experiment: Test C preemergence; assay type: in vivo, Setaria faberii
Procedure, shortened: (§4)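 Rated visually on 0–100 (100 = complete control) after 13–15 days under glass. Treatments went onto freshly seeded loam/sand soil or onto emerged plants at the 1- to 4-leaf stage, using a surfactant-containing solvent formulation.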

ragweed = experiment: Test C preemergence; assay type: in vivo, Ambrosia elatior
Source text: as §2, §3

blackgrass = experiment: Test C preemergence; assay type: in vivo, Alopecurus myosuroides
Procedure, shortened: as §4

large (Lg) crabgrass [5] = experiment: Test A postemergence; assay type: in vivo, Digitaria sanguinalis; conditions: 0 to 100 scale where 0 is no effect and 100 is complete control; for Crabgrass, Large plant response rating: 125 g ai/ha; for Plant response rating, Crabgrass, Large: 500 g ai/ha
Procedure, shortened: as §1

pigweed [6] = experiment: Test A preemergence; assay type: in vivo, Amaranthus retroflexus
Procedure, shortened: as §1

[7] = 125 g ai/ha, 0 to 100 scale where 0 is no effect and 100 is complete control
[8] = 500 g ai/ha, 0 to 100 scale where 0 is no effect and 100 is complete control
[9] = 0 to 100 scale where 0 is no effect and 100 is complete control
[10] = 16 g ai/ha, preemergence, scale 0 to 100 (0 no effect, 100 complete control)
[11] = 125 g ai/ha, preemergence, scale 0 (no effect) to 100 (complete control)
[12] = Preemergence, 62 g ai/ha, scale 0 to 100, 0 no effect, 100 complete control
[13] = 62 g ai/ha, preemergence, scale 0 (no effect) to 100 (complete control)
[14] = Preemergence, 31 g ai/ha, scale 0 to 100, 0 no effect, 100 complete control
[15] = 31 g ai/ha, 0 to 100 scale, 0 no effect, 100 complete control

CCOc1cnn(-c2ccccc2Oc2ncc(Cl)cn2)c1 [Compound 187]
Pigweed plant response rating (pigweed [1]; [7]): 70 | Plant response rating, Pigweed (pigweed [1]; [8]): 100 | Crabgrass, Large plant response rating (0 to 100 scale) (large (Lg) crabgrass [2]; 125 g ai/ha): 100 | Crabgrass, Large plant response rating (large (Lg) crabgrass [2]; [9]): 100 | Foxtail, Giant plant response rating (giant foxtail [3]; [7]): 60 | Plant response rating, Foxtail, Giant (giant foxtail [3]; [8]): 90 | Johnsongrass plant response rating (johnsongrass; [10]): 0 | Johnsongrass plant response rating (johnsongrass; [11]): 45 | Plant response rating, Johnsongrass (johnsongrass; [12]): 30 | Foxtail, Giant plant response rating (giant foxtail [4]; [10]): 0 | Foxtail, Giant plant response rating (giant foxtail [4]; [11]): 85 | Plant response rating, Foxtail, Giant (giant foxtail [4]; [12]): 85 | Ragweed plant response rating (ragweed; [10]): 55 | Ragweed plant response rating (ragweed; [11]): 55 | Plant response rating, Ragweed (ragweed; [12]): 45 | Blackgrass plant response rating (blackgrass; [10]): 0 | Blackgrass plant response rating (blackgrass; [11]): 100 | Plant response rating, Blackgrass (blackgrass; [12]): 30 | Crabgrass, Large plant response rating (large (Lg) crabgrass [5]): 60 | Plant response rating, Crabgrass, Large (large (Lg) crabgrass [5]): 100 | Pigweed plant response rating (0 to 100 scale) (pigweed [6]; 125 g ai/ha): 100 | Pigweed plant response rating (pigweed [6]; [8]): 100

Fc1cccc(Oc2ncc(Cl)cn2)c1-n1cc(I)cn1 [Compound 179]
Pigweed plant response rating (pigweed [1]; [7]): 100 | Plant response rating, Pigweed (pigweed [1]; [8]): 100 | Plant response rating, Crabgrass, Large (large (Lg) crabgrass [2]; [7]): 100 | Crabgrass, Large plant response rating (large (Lg) crabgrass [2]; [9]): 100 | Foxtail, Giant plant response rating (giant foxtail [3]; [7]): 80 | Plant response rating, Foxtail, Giant (giant foxtail [3]; [8]): 90 | Johnsongrass plant response rating (johnsongrass; [10]): 0 | Johnsongrass plant response rating (johnsongrass; [13]): 65 | Johnsongrass plant response rating (johnsongrass; [11]): 98 | Foxtail, Giant plant response rating (giant foxtail [4]; [10]): 40 | Foxtail, Giant plant response rating (giant foxtail [4]; [13]): 100 | Foxtail, Giant plant response rating (giant foxtail [4]; [11]): 100 | Plant response rating, Foxtail, Giant (giant foxtail [4]; [14]): 85 | Ragweed plant response rating (ragweed; [10]): 0 | Ragweed plant response rating (ragweed; [13]): 0 | Ragweed plant response rating (ragweed; [11]): 10 | Blackgrass plant response rating (blackgrass; [10]): 0 | Blackgrass plant response rating (blackgrass; [13]): 40 | Blackgrass plant response rating (blackgrass; [11]): 90 | Plant response rating, Blackgrass (blackgrass; [14]): 50 | Crabgrass, Large plant response rating (large (Lg) crabgrass [5]): 90 | Plant response rating, Crabgrass, Large (large (Lg) crabgrass [5]): 100 | Pigweed plant response rating (0 to 100 scale) (pigweed [6]; 125 g ai/ha): 100 | Pigweed plant response rating (pigweed [6]; [8]): 100

N#Cc1cccc(Oc2ncc(Cl)cn2)c1-n1cnc(C(F)(F)F)c1 [Compound 252, 3-[(5-chloro-2-pyrimidinyl)oxy]-2-[4-(trifluoromethyl)-1H-imidazol-1-yl]benzonitrile]
pest or weed control at 31 g/ha (pigweed [1]; Amaranthus retroflexus, post-emergence, 31 g ai/ha, 0 to 100 scale, 0 no effect, 100 complete control, read-out: Plant response rating, Pigweed): 80% | pest or weed control at 125 g/ha (pigweed [1]; Amaranthus retroflexus, post-emergence, 125 g ai/ha, 0 to 100 scale, 0 no effect, 100 complete control, read-out: Plant response rating, Pigweed): 100% | pest or weed control at 500 g/ha (pigweed [1]; Amaranthus retroflexus, post-emergence, 500 g ai/ha, 0 to 100 scale where 0 is no effect and 100 is complete control, read-out: Plant response rating, Pigweed): 100% | pest or weed control at 31 g/ha (giant foxtail [3]; Setaria faberi, post-emergence, 240 h, 31 g ai/ha, 0 to 100 scale, 0 no effect, 100 complete control, read-out: Plant response rating, Foxtail, Giant): 20% | pest or weed control at 125 g/ha (giant foxtail [3]; Setaria faberi, post-emergence, 240 h, 125 g ai/ha, 0 to 100 scale, 0 no effect, 100 complete control, read-out: Plant response rating, Foxtail, Giant): 100% | pest or weed control at 500 g/ha (giant foxtail [3]; Setaria faberi, post-emergence, 240 h, 500 g ai/ha, 0 to 100 scale where 0 is no effect and 100 is complete control, read-out: Plant response rating, Foxtail, Giant): 100% | pest or weed control at 16 g/ha (johnsongrass; Sorghum halepense, pre-emergence, 16 g ai/ha, preemergence, scale 0 to 100 (0 no effect, 100 complete control), read-out: Johnsongrass plant response rating): 5% | pest or weed control at 125 g/ha (johnsongrass; Sorghum halepense, pre-emergence, 125 g ai/ha, preemergence, scale 0 (no effect) to 100 (complete control), read-out: Johnsongrass plant response rating): 100% | pest or weed control at 62 g/ha (johnsongrass; Sorghum halepense, pre-emergence, Preemergence, 62 g ai/ha, scale 0 to 100, 0 no effect, 100 complete control, read-out: Plant response rating, Johnsongrass): 80% | pest or weed control at 16 g/ha (giant foxtail [4]; Setaria faberi, pre-emergence, 16 g ai/ha, preemergence, scale 0 to 100 (0 no effect, 100 complete control), read-out: Foxtail, Giant plant response rating): 35% | pest or weed control at 125 g/ha (giant foxtail [4]; Setaria faberi, pre-emergence, 125 g ai/ha, preemergence, scale 0 (no effect) to 100 (complete control), read-out: Foxtail, Giant plant response rating): 100% | pest or weed control at 62 g/ha (giant foxtail [4]; Setaria faberi, pre-emergence, Preemergence, 62 g ai/ha, scale 0 to 100, 0 no effect, 100 complete control, read-out: Plant response rating, Foxtail, Giant): 100% | pest or weed control at 16 g/ha (ragweed; Ambrosia artemisiifolia, pre-emergence, 16 g ai/ha, preemergence, scale 0 to 100 (0 no effect, 100 complete control), read-out: Ragweed plant response rating): 40% | pest or weed control at 125 g/ha (ragweed; Ambrosia artemisiifolia, pre-emergence, 125 g ai/ha, preemergence, scale 0 (no effect) to 100 (complete control), read-out: Ragweed plant response rating): 100% | pest or weed control at 62 g/ha (ragweed; Ambrosia artemisiifolia, pre-emergence, Preemergence, 62 g ai/ha, scale 0 to 100, 0 no effect, 100 complete control, read-out: Plant response rating, Ragweed): 98% | pest or weed control at 16 g/ha (blackgrass; Alopecurus myosuroides, pre-emergence, 16 g ai/ha, preemergence, scale 0 to 100 (0 no effect, 100 complete control), read-out: Blackgrass plant response rating): 10% | pest or weed control at 125 g/ha (blackgrass; Alopecurus myosuroides, pre-emergence, 125 g ai/ha, preemergence, scale 0 (no effect) to 100 (complete control), read-out: Blackgrass plant response rating): 95% | pest or weed control at 62 g/ha (blackgrass; Alopecurus myosuroides, pre-emergence, Preemergence, 62 g ai/ha, scale 0 to 100, 0 no effect, 100 complete control, read-out: Plant response rating, Blackgrass): 90% | Pigweed plant response rating (0 to 100 scale) (pigweed [6]; 125 g ai/ha): 100 | pest or weed control at 31 g/ha (pigweed [6]; Amaranthus retroflexus, pre-emergence, 240 h, 31 g ai/ha, 0 to 100 scale where 0 is no effect and 100 is complete control, visual, approximately 10 days, read-out: Plant response rating, Pigweed): 100% | pest or weed control at 500 g/ha (pigweed [6]; Amaranthus retroflexus, pre-emergence, 240 h, 500 g ai/ha, 0 to 100 scale where 0 is no effect and 100 is complete control, read-out: Pigweed plant response rating): 100%

N#Cc1cnn(-c2c(CF)cccc2Oc2ncc(F)cn2)c1 [Compound 151]
Plant response rating, Pigweed (pigweed [1]; [15]): 20 | Pigweed plant response rating (pigweed [1]; [7]): 70 | Plant response rating, Foxtail, Giant (giant foxtail [3]; [15]): 0 | Foxtail, Giant plant response rating (giant foxtail [3]; [7]): 40 | Johnsongrass plant response rating (johnsongrass; [10]): 0 | Johnsongrass plant response rating (johnsongrass; [13]): 50 | Johnsongrass plant response rating (johnsongrass; [11]): 65 | Foxtail, Giant plant response rating (giant foxtail [4]; [10]): 5 | Foxtail, Giant plant response rating (giant foxtail [4]; [13]): 80 | Foxtail, Giant plant response rating (giant foxtail [4]; [11]): 100 | Plant response rating, Foxtail, Giant (giant foxtail [4]; [14]): 35 | Ragweed plant response rating (ragweed; [10]): 55 | Ragweed plant response rating (ragweed; [13]): 85 | Ragweed plant response rating (ragweed; [11]): 100 | Blackgrass plant response rating (blackgrass; [10]): 0 | Blackgrass plant response rating (blackgrass; [13]): 10 | Blackgrass plant response rating (blackgrass; [11]): 90 | Plant response rating, Blackgrass (blackgrass; [14]): 0 | Plant response rating, Pigweed (pigweed [6]; 31 g ai/ha, 0 to 100 scale where 0 is no effect and 100 is complete control, visual, approximately 10 days): 90 | Plant response rating, Pigweed (pigweed [6]; [7]): 90
